Patent US20240166626A1, “Compounds and Methods for Preventing, Treating, or Ameliorating Airway Disease” (THOMAS JEFFERSON UNIVERSITY, priority 2021, published 2024)

What was measured:
Assay type in all cases: cell-based
HASM cells = experiment: Human airway smooth muscle cell scratch (migration) assay; conditions: 24 hours post scratch, 20 ng/mL PDGF, relative to PDGF alone
Protocol: FIGS. 4A-4F: DFPQ inhibits internalization of the β2AR and protects from agonist induced desensitization in cell and tissue models. FIG. 4A: Effect of DFPQ on agonist-promoted internalization of the β2AR. HEK 293 cells stably expressing FLAG-β2AR were pre-incubated with 0.1% DMSO or 10 μM DFPQ for 30 min and then stimulated with the indicated concentrations of ISO for up to 60 min. Cells were fixed and receptor surface expression was measured by ELISA. […] Cells were lysed and cAMP production was measured by ELISA. […] FIG. 4C: Mouse airway tissue were contracted with 1 μM methacholine for 5 min and then incubated overnight with 1 μM ISO±1 μM DFPQ. Airway slices were washed, re-contracted with methacholine, and incubated with ISO for 1 hour (n=4 bronchioles). Airway contractility was measured by luminal area of bronchioles by microscopy at various times. FIG. 4D: Bar graphs represent normalized ISO-promoted relaxation from methacholine contraction on day 2 of treatment at the 25 min timepoint from 4 tracheal rings. *, p<0.05 FIG. 4E: HASM cells were scratched and incubated overnight in PDGF containing serum free media. Cells were imaged to evaluate migration into the scratched area. FIG. 4F: Densitometric analysis of migration into scratched area (n=3 experiments). ***, p<0.001; **, p<0.01
Cell culture GLOSENSOR™ cells (Promega) were maintained in Dulbecco's modified Eagle's medium (DMEM) containing 10% fetal bovine serum (FBS) and 200 μg/ml Hygromycin B. […]® ADRB2 cells (DiscoveRx) were maintained with the AssayComplete™ Cell Culture kit (DiscoveRx catalog #92-3107G). […] Cells were read every three minutes for 18 minutes on a PolarStar Optima plate reader (BMG) to establish peak signal. ISO was added to each well to a final concentration of 1 μM, and luminescence was determined in kinetic mode at room temperature (23-25° C.). Response was analyzed relative to forskolin (7 μM) and alprenolol (1 μM) as positive and negative controls, respectively. […] Luminescence was determined at room temperature (23-25° C.) on a PolarStar Optima plate reader (BMG). […]

β2AR [1] = molecular target: T1, β2AR (Homo sapiens, UniProt P07550); experiment: GLOSENSOR cAMP production assay (bias = GloSensor IC50:PathHunter IC50); conditions: GloSensor IC50:PathHunter IC50 ratio
Protocol: (§1) HEK 293 cells stably overexpressing β2AR included 250 μg/ml G418. Cells were incubated at 37° C. in a humidified incubator with 5% CO2. High throughput assay for cAMP production. […] 0.25 μL of orthogonally compressed libraries from the Lankenau Chemical Genomics Center (LCGC) were transferred into plates using a high-density replication tool and allowed to incubate with cells for one hour at 37° C. Cells were read every three minutes for 18 minutes on a PolarStar Optima plate reader (BMG) to establish peak signal. ISO was added to each well to a final concentration of 1 μM, and luminescence was determined in kinetic mode at room temperature (23-25° C.). Response was analyzed relative to forskolin (7 μM) and alprenolol (1 μM) as positive and negative controls, respectively. High throughput assay for β-arrestin recruitment to β2AR. […] 0.25 μL of orthogonally compressed libraries from the Lankenau Chemical Genomics Center (LCGC) were transferred into plates using a high-density replication tool and allowed to incubate with cells for 45 minutes at 37° C. ISO (5 μL of 5 μM stock in cell plating medium) was added to each well to a final concentration of 1 μM, and cells were incubated for 70 minutes at 37° C. Plates were removed from the incubator, and 12.5 μL of […] ® detection solution (DiscoveRx catalog #93-0001) was added to each well. Plates were incubated in the dark at room temperature for one hour. Luminescence was determined at room temperature (23-25° C.) on a PolarStar Optima plate reader (BMG). Response was analyzed relative to vehicle (DMSO) and alprenolol (1 μM) as positive and negative controls, respectively. Screening data analysis and IC50 determination. Negative control signal was subtracted from all data and responses were normalized relative to full response (positive control minus negative control). Relative assay bias was calculated from the ratio of normalized cAMP and arrestin recruitment responses. Wells from orthogonally-compressed libraries displaying Gs-bias (negative allosteric modulators of arrestin recruitment and positive allosteric modulators of cAMP production, excluding inverse agonists) were deconvoluted to identify compounds for follow-up analysis.

β2AR [2] = molecular target: T1, β2AR; experiment: […] high throughput assay for β-arrestin recruitment to β2AR; conditions: PathHunter, ISO-promoted β-arrestin2 recruitment
Protocol: as §1

[3] = Table 2, scaffold drawing 253, R1/R2 substituents
[4] = Table 3, scaffold drawing 254, R1/R3 substituents

T1 sequence (P07550 whole entry): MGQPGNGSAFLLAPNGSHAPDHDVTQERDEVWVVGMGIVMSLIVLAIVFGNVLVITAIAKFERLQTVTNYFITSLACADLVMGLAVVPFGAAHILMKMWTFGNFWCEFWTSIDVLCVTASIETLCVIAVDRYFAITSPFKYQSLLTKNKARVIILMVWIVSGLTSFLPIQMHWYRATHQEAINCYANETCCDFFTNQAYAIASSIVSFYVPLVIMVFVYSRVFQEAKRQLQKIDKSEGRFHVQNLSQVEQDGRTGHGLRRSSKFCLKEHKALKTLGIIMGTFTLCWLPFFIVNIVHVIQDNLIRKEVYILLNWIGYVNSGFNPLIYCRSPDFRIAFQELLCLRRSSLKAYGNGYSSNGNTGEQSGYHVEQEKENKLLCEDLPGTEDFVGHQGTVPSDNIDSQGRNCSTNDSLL

With CC(C)NCC(O)c1ccc(O)c(O)c1 (stereo not shown) [ISO, isoproterenol] the “HASM cell migration into scratched area” value (HASM cells) was “reduced migration”.
Cc1ccc2nc(Nc3ccc(F)c(F)c3)nc(NC3CCCCC3)c2c1 [m,p-difluorophenyl / 6-methyl] was tested, and the Arrestin fold bias (β2AR [1]; Table 2) was >45 and the IC50 (β2AR [2]; [3]) was 0.36 ± 0.18 µM.
With c1ccc(Nc2nc(NC3CCCCC3)c3ccccc3n2)cc1 [phenyl / N/A] the Arrestin fold bias (β2AR [1]; Table 2) was >100 and the IC50 (β2AR [2]; [3]) was 3 ± 0.7 µM.
Clc1ccc(Nc2nc(NC3CCCCC3)c3ccccc3n2)cc1 [p-chlorophenyl / N/A] was tested, and the Arrestin fold bias (β2AR [1]; Table 2) was >100 and the IC50 (β2AR [2]; [3]) was 0.8 ± 0.2 µM.
With Clc1cc(Cl)cc(Nc2nc(NCc3ccccc3)c3ccccc3n2)c1 [m-dichlorophenyl / benzyl] the Arrestin fold bias (β2AR [1]; Table 3) was “No” and the IC50 (β2AR [2]; [4]) was 30 ± 4 µM.
With Fc1ccc(Nc2nc(NC3CCCCC3)c3ccccc3n2)cc1 [p-fluorophenyl / N/A] the Arrestin fold bias (β2AR [1]; Table 2) was >200 and the IC50 (β2AR [2]; [3]) was 0.23 ± 0.07 µM.
Clc1cccc(Nc2nc(NC3CCCCC3)c3ccccc3n2)c1 [m-chlorophenyl / N/A] was tested, and the Arrestin fold bias (β2AR [1]; Table 2) was >10 and the IC50 (β2AR [2]; [3]) was 6 ± 0.8 µM.
CC1CCCC(Nc2nc(Nc3cc(Cl)cc(Cl)c3)nc3ccccc23)C1 (stereo not shown) [m-dichlorophenyl / 3-methylcyclohexyl] was tested, and the Arrestin fold bias (β2AR [1]; Table 3) was >10 and the IC50 (β2AR [2]; [4]) was 8 ± 5 µM.
With Clc1cccc(CNc2nc(NC3CCCCC3)c3ccccc3n2)c1 [m-chlorobenzyl / N/A] the Arrestin fold bias (β2AR [1]; Table 2) was “No” and the IC50 (β2AR [2]; [3]) was 21 ± 2 µM.
For Fc1ccc(Nc2nc(NC3CCCCC3)c3cc(Br)ccc3n2)cc1F [m,p-difluorophenyl / 6-bromo], the Arrestin fold bias (β2AR [1]; Table 2) was >900 and the IC50 (β2AR [2]; [3]) was 0.03 ± 0.02 µM.
For OCc1cc(C(O)CNCCCCCCOCCCCc2ccccc2)ccc1O (stereo not shown) [salmeterol], the “HASM cell migration into scratched area” value (HASM cells) was “reduced migration”.
With COc1ccc(Nc2nc(NC3CCCCC3)c3ccccc3n2)cc1OC [m,p-dimethoxyphenyl / N/A] the Arrestin fold bias (β2AR [1]; Table 2) was >7 and the IC50 (β2AR [2]; [3]) was 14 ± 3 µM.
For Clc1ccc(Nc2nc(NC3CCCCC3)c3ccccc3n2)cc1Cl [m,p-dichlorophenyl / N/A], the Arrestin fold bias (β2AR [1]; Table 2) was >100 and the IC50 (β2AR [2]; [3]) was 3 ± 0.7 µM.
With Fc1ccc(Nc2nc(NC3CCCCC3)c3cc(Cl)ccc3n2)cc1F [m,p-difluorophenyl / 6-chloro] the Arrestin fold bias (β2AR [1]; Table 2) was >400 and the IC50 (β2AR [2]; [3]) was 0.12 ± 0.05 µM.
For Fc1cc(F)cc(Nc2nc(NC3CCCCC3)c3ccccc3n2)c1 [m-difluorophenyl / N/A], the Arrestin fold bias (β2AR [1]; Table 2) was >200 and the IC50 (β2AR [2]; [3]) was 0.2 ± 0.05 µM.
FC(F)(F)c1cccc(Nc2nc(NC3CCCCC3)c3ccccc3n2)c1 [m-trifluoromethylphenyl / N/A] was tested, and the Arrestin fold bias (β2AR [1]; Table 2) was ~3 and the IC50 (β2AR [2]; [3]) was 3 ± 1 µM.
In the case of c1ccc2c(NC3CCCCC3)nc(NC3CCCCC3)nc2c1 [cyclohexyl / N/A], the Arrestin fold bias (β2AR [1]; Table 2) is reported as >10 and the IC50 (β2AR [2]; [3]) is reported as 4 ± 1 µM.
With Fc1ccc(Nc2nc(NC3CCCCC3)c3cc(C(F)(F)F)ccc3n2)cc1F [m,p-difluorophenyl / 6-trifluoromethyl] the Arrestin fold bias (β2AR [1]; Table 2) was >1000.
Work on Cc1ccc(CNc2nc(NC3CCCCC3)c3ccccc3n2)cc1 [p-methylbenzyl / N/A] yielded an Arrestin fold bias (β2AR [1]; Table 2) of ~4 and an IC50 (β2AR [2]; [3]) of 8 ± 2 µM.
For Clc1cc(Cl)cc(Nc2nc(NC3CCCC3)c3ccccc3n2)c1 [m-dichlorophenyl / cyclopentyl], the Arrestin fold bias (β2AR [1]; Table 3) was ~2 and the IC50 (β2AR [2]; [4]) was 9 ± 3 µM.
